These results are taken from patent US9371336B2, “Compounds for treating spinal muscular atrophy” (PTC Therapeutics Inc., priority 2012, dated 2016).

Data set [1] relates to SMN2 minigene mRNA (SMN2-A minigene construct). The data set is described as follows: SMN2 minigene mRNA splicing RT-qPCR assay in cultured cells. The format is cell-based, human. Particulars: Homo sapiens, HEK293-H; HEK293H cells stably transfected with SMN2-A minigene, 24 hours, 7-point concentration data; concentration giving 1.5-fold SMN2 full length mRNA relative to vehicle-treated cells; read-out: EC1.5x for production of full length SMN2 mRNA. An outline of the steps: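 Full-length SMN2 minigene mRNA, measured by exon 7/luciferase-specific RT-qPCR that excludes endogenous SMN1/SMN2, was normalized to GAPDH and expressed relative to vehicle-treated cells via modified ΔΔCt. Stably transfected HEK293H cells received compound (7-point, 3.16-fold series, duplicates) for 24 h at 37 °C.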
A general note: Quantitative PCR measures a nucleic acid by following its amplification.

In data set [2] the test system is Smn protein. The data set is described as follows: Smn protein assay (HTRF) in cultured cells (SMA patient fibroblasts GM03813). In kind it is cell-based, human. As to conditions: 48 hours; for maximum fold (Fold) increase of Smn protein: SMA patient fibroblast cells, 7-point concentration curve, relative to vehicle control; for EC1.5x for Smn protein expression: SMA patient fibroblast cells (GM03813), HTRF, 7-point concentration data, concentration producing 1.5 times Smn protein vs DMSO vehicle control. An outline of the steps: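 Smn level is expressed as fold over vehicle, from blank-corrected ΔF of the 665/620 nm HTRF ratio. Readout used anti-SMN d2 and kryptate antibodies on RIPA lysates. GM03813 SMA fibroblasts had 48 h exposure at 37° C to seven 3.16-fold compound dilutions, run in triplicate.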

The structures appear in SMILES notation.

`Cc1ccn2cc(-c3cc4ccc(N5C[C@H](C)N(C)C[C@H]5C)nc4oc3=O)nc2c1` [Cpd 96, 3-(7-methylimidazo[1,2-a]pyridin-2-yl)-7-[(2R,5S)-2,4,5-trimethylpiperazin-1-yl]-2H-pyrano[2,3-b]pyridin-2-one] came in with a melting point of 114 to 117 °C. The EC (1.5-fold) in data set [1] fell in the range of 0.3 to 1 µM. Also, the “maximum fold (Fold) increase of Smn protein” value (from here on “maximum fold (Fold) increase”) in data set [2] is “*** (a fold increase between >1.35 and ≦1.5 is indicated by three stars (***))”.

With `CN1CCCN(c2ccc3cc(-c4cn5cccc(F)c5n4)c(=O)oc3n2)CC1` [Cpd 49, 3-(8-fluoroimidazo[1,2-a]pyridin-2-yl)-7-(4-methyl-1,4-diazepan-1-yl)-2H-pyrano[2,3-b]pyridin-2-one], the melting point was 269 to 272 °C. Further, the EC (1.5-fold) in data set [1] was no more than 0.1 µM. For the same compound, in data set [2], the “EC1.5x for Smn protein expression” value was “*** (an EC1.5× between >0.3 μM and ≦1 μM is indicated by three stars (***))”; the “maximum fold (Fold) increase” value was “**** (a fold increase between >1.5 and ≦1.65 is indicated by four stars (****))”.

For `Cl.O=c1oc2cc(N3CCNCC3)ncc2cc1-c1cn2ccccc2n1` [Cpd 42, 3-(imidazo[1,2-a]pyridin-2-yl)-7-(piperazin-1-yl)-2H-pyrano[3,2-c]pyridin-2-one hydrochloride], the melting point was 278 to 284 °C. Besides, the EC (1.5-fold) in data set [1] lay in the range of 3 to 30 µM. For the same compound, the “maximum fold (Fold) increase” value in data set [2] was “** (a fold increase between >1.2 and ≦1.35 is indicated by two stars (**))”.

In turn, `CN1CCN(c2ccc3cc(-c4cn5ccsc5n4)c(=O)oc3n2)CC1` [Cpd 54, 3-(imidazo[2,1-b][1,3]thiazol-6-yl)-7-(4-methylpiperazin-1-yl)-2H-pyrano[2,3-b]pyridin-2-one] had a melting point of 268 to 272 °C. The EC (1.5-fold) in data set [1] was 0.1 to 0.3 µM. In data set [2], the “EC1.5x for Smn protein expression” value is “*** (an EC1.5× between >0.3 μM and ≦1 μM is indicated by three stars (***))”; the “maximum fold (Fold) increase” value is “**** (a fold increase between >1.5 and ≦1.65 is indicated by four stars (****))”.

For the compound `CN1CCN(c2ccc3cc(-c4cn5cccc(F)c5n4)c(=O)oc3n2)CC1` [Cpd 110, 3-(8-fluoroimidazo[1,2-a]pyridin-2-yl)-7-(4-methylpiperazin-1-yl)-2H-pyrano[2,3-b]pyridin-2-one], the melting point was 258 to 262 °C. The EC (1.5-fold) in data set [1] was no more than 0.1 µM. Moreover, in data set [2], the “EC1.5x for Smn protein expression” value is “**** (an EC1.5×≦0.3 μM is indicated by four stars (****))”; the “maximum fold (Fold) increase” value is “**** (a fold increase between >1.5 and ≦1.65 is indicated by four stars (****))”.

`Cl.O=c1oc2nc(N3CCCNCC3)ccc2cc1-c1nc2c(Cl)cccc2s1` [Cpd 31, 3-(4-chloro-1,3-benzothiazol-2-yl)-7-(1,4-diazepan-1-yl)-2H-pyrano[2,3-b]pyridin-2-one hydrochloride]: the melting point was in the range of 271 to 273 °C. For the same compound, the EC (1.5-fold) in data set [1] was in the range of 0.1 to 0.3 µM. For the same compound, the “maximum fold (Fold) increase” value in data set [2] was “** (a fold increase between >1.2 and ≦1.35 is indicated by two stars (**))”.

Consider `CCCN1CCN(c2ccc3cc(-c4nc5c(Cl)cccc5s4)c(=O)oc3n2)CC1` [Cpd 13, 3-(4-chloro-1,3-benzothiazol-2-yl)-7-(4-propylpiperazin-1-yl)-2H-pyrano[2,3-b]pyridin-2-one], for which the melting point lay in the range of 251 to 254 °C. In addition, the EC (1.5-fold) in data set [1] is 1 to 3 µM. The “maximum fold (Fold) increase” value in data set [2] was “*** (a fold increase between >1.35 and ≦1.5 is indicated by three stars (***))”.

The compound `Cc1ccn2cc(-c3cc4ccc(N5CCN(C)C[C@@H]5C)nc4oc3=O)nc2c1` [Cpd 62, 7-[(2S)-2,4-dimethylpiperazin-1-yl]-3-(7-methylimidazo[1,2-a]pyridin-2-yl)-2H-pyrano[2,3-b]pyridin-2-one] yielded a melting point of 242 to 246 °C. The EC (1.5-fold) in data set [1] is no more than 0.1 µM. Besides, in data set [2], the “EC1.5x for Smn protein expression” value was “**** (an EC1.5×≦0.3 μM is indicated by four stars (****))”; the “maximum fold (Fold) increase” value was “**** (a fold increase between >1.5 and ≦1.65 is indicated by four stars (****))”.

Turning to `C[C@H]1CN(C)CCN1c1ccc2cc(-c3cn4cccc(F)c4n3)c(=O)oc2n1` [Cpd 68, 7-[(2S)-2,4-dimethylpiperazin-1-yl]-3-(8-fluoroimidazo[1,2-a]pyridin-2-yl)-2H-pyrano[2,3-b]pyridin-2-one], the melting point lay in the range of 210 to 213 °C. The EC (1.5-fold) in data set [1] is no more than 0.1 µM. For the same compound, in data set [2], the “EC1.5x for Smn protein expression” value is “*** (an EC1.5× between >0.3 μM and ≦1 μM is indicated by three stars (***))”; the “maximum fold (Fold) increase” value was “**** (a fold increase between >1.5 and ≦1.65 is indicated by four stars (****))”.

Compound `CCN1CCCN(c2ccc3cc(-c4cn5cc(C)nc(C)c5n4)c(=O)oc3n2)CC1` [Cpd 128, 3-(6,8-dimethylimidazo[1,2-a]pyrazin-2-yl)-7-(4-ethyl-1,4-diazepan-1-yl)-2H-pyrano[2,3-b]pyridin-2-one] gave a melting point of 289 to 291 °C. In data set [1], the EC (1.5-fold) is no more than 0.1 µM. Further, in data set [2], the “EC1.5x for Smn protein expression” value is “**** (an EC1.5×≦0.3 μM is indicated by four stars (****))” and the “maximum fold (Fold) increase” value is listed as “***** (a fold increase >1.65 is indicated by five stars (*****))”.

Consider `C[C@@H]1CN(c2ccc3cc(-c4nc5c(Cl)cccc5s4)c(=O)oc3n2)C[C@H](C)N1` [Cpd 70, 3-(4-chloro-1,3-benzothiazol-2-yl)-7-[(3R,5S)-3,5-dimethylpiperazin-1-yl]-2H-pyrano[2,3-b]pyridin-2-one], for which the melting point lay within 295 to 297 °C. In addition, in data set [1], the EC (1.5-fold) was in the range of 0.1 to 0.3 µM. In addition, the “maximum fold (Fold) increase” value in data set [2] is “*** (a fold increase between >1.35 and ≦1.5 is indicated by three stars (***))”.

`O=c1oc2nc(N3CCN(Cc4ccccc4O)CC3)ccc2cc1-c1nc2c(Cl)cccc2s1` [Cpd 6, 3-(4-chloro-1,3-benzothiazol-2-yl)-7-[4-(2-hydroxybenzyl)piperazin-1-yl]-2H-pyrano[2,3-b]pyridin-2-one] came in with a melting point of 262 to 266 °C. For the same compound, the EC (1.5-fold) in data set [1] lay in the range of 3 to 30 µM. Moreover, the “maximum fold (Fold) increase” value in data set [2] is “** (a fold increase between >1.2 and ≦1.35 is indicated by two stars (**))”.

Regarding `Cc1csc(-c2cc3ccc(N4CCNCC4)nc3oc2=O)n1.Cl` [Cpd 15, 3-(4-methyl-1,3-thiazol-2-yl)-7-(piperazin-1-yl)-2H-pyrano[2,3-b]pyridin-2-one hydrochloride], the melting point was 238 to 242 °C. Besides, in data set [1], the EC (1.5-fold) was 3 to 30 µM. Moreover, the “maximum fold (Fold) increase” value in data set [2] is “** (a fold increase between >1.2 and ≦1.35 is indicated by two stars (**))”.

Consider `CN1CCCN(c2ccc3cc(-c4cn5cccnc5n4)c(=O)oc3n2)CC1` [Cpd 36, 3-(imidazo[1,2-a]pyrimidin-2-yl)-7-(4-methyl-1,4-diazepan-1-yl)-2H-pyrano[2,3-b]pyridin-2-one], for which the melting point lay within 232 to 234 °C. The EC (1.5-fold) in data set [1] lay within 0.3 to 1 µM. In addition, in data set [2], the “EC1.5x for Smn protein expression” value is “** (an EC1.5× between >1 and ≦3 μM is indicated by two stars (**))”; the “maximum fold (Fold) increase” value was “**** (a fold increase between >1.5 and ≦1.65 is indicated by four stars (****))”.

`Cc1cc(F)c2nc(-c3cc4ccc(N5C[C@@H](C)N[C@@H](C)C5)nc4oc3=O)cn2c1` [Cpd 106, 7-[(3R,5S)-3,5-dimethylpiperazin-1-yl]-3-(8-fluoro-6-methylimidazo[1,2-a]pyridin-2-yl)-2H-pyrano[2,3-b]pyridin-2-one] came in with a melting point of 280 to 283 °C. Besides, the EC (1.5-fold) in data set [1] was no more than 0.1 µM. Also, in data set [2], the “EC1.5x for Smn protein expression” value is “*** (an EC1.5× between >0.3 μM and ≦1 μM is indicated by three stars (***))”; the “maximum fold (Fold) increase” value was “*** (a fold increase between >1.35 and ≦1.5 is indicated by three stars (***))”.

Compound `CN1CCN(c2ccc3cc(-c4nc5ccccc5s4)c(=O)oc3n2)CC1` [Cpd 3, 3-(1,3-benzothiazol-2-yl)-7-(4-methylpiperazin-1-yl)-2H-pyrano[2,3-b]pyridin-2-one] displayed a melting point of 247 to 250 °C. For the same compound, the EC (1.5-fold) in data set [1] is 0.3 to 1 µM. In data set [2], the “EC1.5x for Smn protein expression” value was “* (An EC1.5× for Smn protein expression between >3 μM and ≦10 μM is indicated by one star (*))”; the “maximum fold (Fold) increase” value was “*** (a fold increase between >1.35 and ≦1.5 is indicated by three stars (***))”.

`Cc1cn2cc(-c3cc4ccc(N5CCCNCC5)nc4oc3=O)nc2cn1.Cl` [Cpd 104, 7-(1,4-diazepan-1-yl)-3-(6-methylimidazo[1,2-a]pyrazin-2-yl)-2H-pyrano[2,3-b]pyridin-2-one hydrochloride] returned a melting point of 267 to 269 °C. In addition, the EC (1.5-fold) in data set [1] is no more than 0.1 µM. For the same compound, in data set [2], the “maximum fold (Fold) increase” value was “** (a fold increase between >1.2 and ≦1.35 is indicated by two stars (**))”.

`Cl.O=c1oc2nc(N3CCCNCC3)ccc2cc1-c1cn2cccnc2n1` [Cpd 30, 7-(1,4-diazepan-1-yl)-3-(imidazo[1,2-a]pyrimidin-2-yl)-2H-pyrano[2,3-b]pyridin-2-one hydrochloride] showed a melting point of 250 to 252 °C. In addition, the EC (1.5-fold) in data set [1] is 0.1 to 0.3 µM. In data set [2], the “EC1.5x for Smn protein expression” value was “** (an EC1.5× between >1 and ≦3 μM is indicated by two stars (**))”; the “maximum fold (Fold) increase” value is “*** (a fold increase between >1.35 and ≦1.5 is indicated by three stars (***))”.

One may read the melting point as the temperature of the solid-liquid transition.
